{
  "source": "patent US12508323B2",
  "about": "“Method of treatment of colorectal, breast and lung cancer with metal containing immune agonist complexes” (HANGZHOU XINGAO BIOTECHNOLOGY CO., LTD., priority 2020, dated 2025)",
  "key": {"[1]": {"system": "colorectal cancer cell line CT26", "experiment": "Subcutaneous transplantation tumor model, CT26 in BALB/C mice", "format": "in vivo", "details": "i.p. 10 mg/kg (nanobody 200 μg/mouse) once a day for 21 days", "protocol": "(§1) Specific pathogen free (SPF)-grade BALB/C and C57BL/6 male mice, aged 7-8 weeks and weighing 20-22 g, were purchased from Shanghai Slac Laboratory Animal Co., Ltd (Laboratory animal quality certificate number: SCXK (Shanghai)2007-0005.\n(§2) Mice were injected intraperitoneally with the immune agonist or complex with a dose of 10 mg/kg, or each injected intraperitoneally with 200 μg of the nanobody.\n(§3) Administration route: intraperitoneal injection.\n(§4) Frequency: once a day for consecutive 21 days.\n(§5) Cancer cells were cultured, passaged, collected at the logarithmic phase of cells, and prepared into a cell suspension at a concentration of (1.0×10^7) per ml. Mice were injected with 0.2 ml of the cell suspension at the axilla of the right forelimb (cell number 2.0×10^6 cells/each), and were tumorigenic in about 8 days. These mice were randomly divided into 10 groups equally, namely, group A: negative control group (saline group), group B: positive control (cGAMP) group (dose: 10 mg/kg), group C: MncGAMP group (dose: 10 mg/kg), group D: anti-PD-L1 nanobody group, group E: anti-CD47 nanobody group, group F: anti-TfR1 nanobody group, group G: complex V group (dose: 10 mg/kg), group H: complex VI group (dose: 10 mg/kg), group I: complex IX group (dose: 10 mg/kg), and group J: complex VIII group (10 mg/kg). […]\n(§6) The data were expressed as ×±s and processed by SPSS10.0 software. […]"}, "[2]": {"system": "lung cancer Lewis tumor line LL/2", "experiment": "Subcutaneous transplantation tumor model, LL/2 in C57BL/6 mice", "format": "in vivo", "details": "i.p. 10 mg/kg (nanobody 200 μg/mouse) once a day for 21 days", "protocol": "as §1, §2, §3, §4, §5, §6"}, "[3]": {"system": "OVA", "experiment": "Immune adjuvant function with OVA immunization (ELISA)", "format": "in vivo", "details": "values of log2; s.c. 10 μg OVA + 100 μg adjuvant on days 1, 7, 14; sampled day 21; C57BL/6 mice", "protocol": "Specific pathogen free (SPF)-grade C57BL/6 male mice, aged 7-8 weeks and weighing 20-22 g, were purchased from American Animals Inc. The aluminum adjuvant and OVA were purchased from Invitrogen company.\nThe mice were divided into 7 groups (10 mice in each group), namely, group A: OVA+cGAMP; group B: OVA+MncGAMP; group C: OVA+complex VIII; group D: OVA+complex IV; group E: OVA+complex VII; group F: OVA+aluminum adjuvant; and group G: OVA.\nEach mouse was injected subcutaneously with 10 μg of OVA and 100 μg of aluminum adjuvant or a different species of cGAMP (or the immune agonist complex), and those not injected were negative control groups. Immunization was performed once on days 1, 7, and 14, respectively, and lung lavage fluid was obtained and blood samples taken on day 21. The potency of the immune agonist and the complex as adjuvants to induce nanobody production was determined by ELISA, and the results were shown in Table 7."}, "[4]": {"system": "dendritic cell DCs and T cells", "experiment": "Activation of immune cells (flow cytometry of spleen and lung cells)", "format": "in vivo, mice", "details": "14 days after immunization, mouse spleen and lung tissues", "protocol": "Mice were raised, immunized with virus infection, and subjected to blood collection, as the same as Example 3. Isotype control nanobody was purchased from eBiosciences; antibody magnetic beads were purchased from Militeny Biotech; and flow cytometer was purchased from BD company. 14 days after immunization, mouse spleen and lung tissues were taken, ground and pounded separately, filtered with a 40-μm filter, and centrifuged at 1000 rpm for 10 min to separate unlysed immune cells. The DC cells (CD40\\CD80\\CD86\\MHCII), T cells and (CD8+) cells were separated by the antibody magnetic beads, and added with the corresponding FAC nanobody (diluted with FACS buffer). As a negative control, the isotype control nanobody was added into the DC cells followed by incubation for 1 h, centrifugation, and rinsing with PBS. After that, the samples were analyzed by the flow cytometry to select the appropriate cells for determination of fluorescence intensity (MFI), and the results were shown in Table 8."}, "[5]": {"system": "amyloid plaques", "experiment": "Thioflavin S staining of brain amyloid plaques in AD mice", "format": "in vivo", "details": "10 mg/kg i.p., 60 days of administration", "protocol": "Seven groups of AD mice in the above examples were tested in view of reduction of amyloid plaques in the brains of AD mice after 60 days of administration. The experiment was a thioflavin S staining experiment, and the experimental procedures were described below. 60 days after drug administration, brain tissue of mice was taken, fixed, embedded with paraffin, sectioned, de-waxed with xylene, dehydrated with ethanol gradient, and rinsed with TBS solution three times. After that, 0.3% thioflavin S (dissolved in 50% ethanol) was dropped on the tissue followed by incubation for 10 min at room temperature, rinsing with 50% ethanol three times, rinsing with TBS solution, drying in the shade, and sealing. Then the issue was examined by laser confocal microscopy (Leica, Germany) to detect the changes in the amount of amyloid plaque deposition in the brain of AD mice."}, "[6]": {"system": "pro-inflammatory factors IL-1β and TNF-α", "experiment": "Pro-inflammatory factors in brain tissues of AD mice (ELISA)", "format": "in vivo", "details": "10 mg/kg i.p., two months of administration", "protocol": "To explore the effect of the above immune agonists and complexes thereof on neuroinflammation in the brain of AD mice, the content of pro-inflammatory factors in brain tissues of AD mice was determined by ELISA method. The content of pro-inflammatory factors IL-1β and TNF-α in brain tissues of AD mice were measured respectively.\nFresh brain tissues of mice were taken and weighed, and the content of inflammatory factors IL-1β and TNF-α in brain tissues was determined by using the Cloud Clone ELISA kit. […] Therefore, the immune agonist-brain-targeted nanocarrier complexes were able to eliminate the chronic neuroinflammation present in the course of AD in mice."}, "[7]": {"details": "vs negative control tumor weight"}},
  "data": [
    {"molecule": "Nc1nc(=O)c2ncn(C3OC4COP(=O)(O)OC5C(COP(=O)(O)OC3C4O)OC(n3cnc4c(N)ncnc43)C5O)c2[nH]1", "note": "(stereo not drawn) [cGAMP, 2′3′-cGAMP]", "values": [
      {"measurement": "Average tumor weight", "setting": "[1]; n = 10, mean ± SD", "result": "0.784 ± 0.135", "unit": "g"},
      {"measurement": "Average tumor inhibition rate (%)", "setting": "[1]; [7]", "result": 65.0, "unit": "%"},
      {"measurement": "Average tumor weight", "setting": "[2]; n = 10, mean ± SD", "result": "1.138 ± 0.127", "unit": "g"},
      {"measurement": "Average tumor inhibition rate (%)", "setting": "[2]; [7]", "result": 60.0, "unit": "%"},
      {"measurement": "Alveolar lavage fluid (IgA)", "setting": "[3]", "result": "2.3 ± 0.2"},
      {"measurement": "Serum (IgG)", "setting": "[3]", "result": "17.5 ± 0.9"},
      {"measurement": "CD8 cells (%)", "setting": "[4]", "result": "2.3 ± 0.2", "unit": "%"},
      {"measurement": "CD40 cells (%)", "setting": "[4]", "result": 122.6, "unit": "%"},
      {"measurement": "CD80 cells (%)", "setting": "[4]", "result": 115.5, "unit": "%"},
      {"measurement": "CD86 cells (%)", "setting": "[4]", "result": 18.3, "unit": "%"},
      {"measurement": "MHCII cells (%)", "setting": "[4]", "result": 218.4, "unit": "%"},
      {"measurement": "T cells (%)", "setting": "[4]", "result": "0.3 ± 0.2", "unit": "%"},
      {"measurement": "Average count points of fluorescence intensity of amyloid plaques in brain tissues of AD mice (field of view area)", "setting": "[5]", "result": "1800 ± 160"},
      {"measurement": "IL-1β", "setting": "[6]", "result": "46.18 ± 0.09", "unit": "pg/mg"},
      {"measurement": "TNF-α", "setting": "[6]", "result": "35.52 ± 0.35", "unit": "pg/mg"}
    ]}
  ]
}
